Results on 24 compounds are retold here after patent publication US8658659B2, “Substituted oxazole derivatives and their use as tyrosine kinase inhibitors” (AB Science, priority 2005, dated 2014).

Molecules are shown by their SMILES.

`Cc1ccc(C(=O)CCc2ccccc2)cc1Nc1ncc(-c2ccncc2)o1` [Compound 017, 1-[4-Methyl-3-(5-pyridin-4-yl-oxazol-2-ylamino)-phenyl]-3-phenyl-propan-1-one]: the melting point (as a rule, the temperature, or range, at which the solid turns liquid) is 138 °C. The value for `Cc1ccc(Nc2nc3ccccc3s2)cc1Nc1ncc(-c2ccc(C#N)cc2)o1` [Compound 003, 4-{2-[5-(Benzothiazol-2-ylamino)-2-methyl-phenylamino]-oxazol-5-yl}-benzonitrile] was 216 to 220 °C; that for `Cc1ccc(Nc2nc3ccccc3o2)cc1Nc1ncc(-c2cccnc2)o1` [Compound 004, N1-Benzooxazol-2-yl-4-methyl-N3-(5-pyridin-3-yl-oxazol-2-yl)-benzene-1,3-diamine] was 238 °C. The result for `Cc1ccc(NCC(=O)c2ccc(F)cc2)cc1Nc1ncc(-c2ccncc2)o1` [Compound 023, 1-(4-Fluoro-phenyl)-2-[4-methyl-3-(5-pyridin-4-yl-oxazol-2-ylamino)-phenylamino]-ethanone] reads 202 °C; that for `Cc1ccc(N2CCN(c3cccc(F)c3)C2=O)cc1Nc1ncc(-c2ccc(C(N)=O)cc2)o1` [Compound 013, 4-(2-{5-[3-(3-Fluoro-phenyl)-2-oxo-imidazolidin-1-yl]-2-methyl-phenylamino}-oxazol-5-yl)-benzamide], > 260 °C. The result for `Cc1ccc(Nc2nc3cc(Cl)ccc3o2)cc1Nc1ncc(-c2ccncc2)o1` [Compound 005, N1-(5-Chloro-benzooxazol-2-yl)-4-methyl-N3-(5-pyridin-4-yl-oxazol-2-yl)-benzene-1,3-diamine] reads 229 °C. For the compound `CC(=O)c1ccc(C)c(Nc2ncc(-c3ccc(C(N)=O)cc3)o2)c1` [Compound 022, 4-[2-(5-Acetyl-2-methyl-phenylamino)-oxazol-5-yl]-benzamide], the melting point is > 260 °C.

On to `Cc1ccc(C(=O)CCc2ccccc2)cc1Nc1ncc(-c2ccc(C#N)cc2)o1` [Compound 020, 4-{2-[2-Methyl-5-(3-phenyl-propionyl)-phenylamino]-oxazol-5-yl}-benzonitrile], for which the melting point was found to be 138 °C. The result for `CCS(=O)(=O)c1ccc2oc(Nc3ccc(C)c(Nc4ncc(-c5ccncc5)o4)c3)nc2c1` [Compound 007, N1-(5-Ethanesulfonyl-benzooxazol-2-yl)-4-methyl-N3-(5-pyridin-4-yl-oxazol-2-yl)-benzene-1,3-diamine] reads 252 °C; that for `Cc1ccc(NCC(=O)c2ccccc2)cc1Nc1ncc(-c2ccncc2)o1` [Compound 026, 2-[4-Methyl-3-(5-pyridin-4-yl-oxazol-2-ylamino)-phenylamino]-1-phenyl-ethanone], 152 °C; that for `Cc1ccc(N(C)CC(=O)c2ccc(C#N)cc2)cc1Nc1ncc(-c2ccncc2)o1` [Compound 025, 4-({Methyl-[4-methyl-3-(5-pyridin-4-yl-oxazol-2-ylamino)-phenyl]-amino}-acetyl)-benzonitrile], 218 °C.

`Cc1ccc(N2CCN(c3cccc(F)c3)C2=O)cc1Nc1ncc(-c2ccc(C#N)cc2)o1` [Compound 011, 4-(2-{5-[3-(3-Fluoro-phenyl)-2-oxo-imidazolidin-1-yl]-2-methyl-phenylamino}-oxazol-5-yl)-benzonitrile]: the melting point was determined as 221 °C. Turning to `Cc1ccc(N2CCN(c3cccc(C#N)c3)C2=O)cc1Nc1ncc(-c2ccc(C#N)cc2)o1` [Compound 012, 4-(2-{5-[3-(3-cyano-phenyl)-2-oxo-imidazolidin-1-yl]-2-methyl-phenylamino}-oxazol-5-yl)-benzonitrile], the melting point is > 260 °C. The value for `Cc1ccc(Nc2nc3ccc(Cl)cc3o2)cc1Nc1ncc(-c2ccncc2)o1` [Compound 006, N1-(6-Chloro-benzooxazol-2-yl)-4-methyl-N3-(5-pyridin-4-yl-oxazol-2-yl)-benzene-1,3-diamine] was > 260 °C; that for `Cc1ccc(N2CCN(c3cccc(C(F)(F)F)c3)C2=O)cc1Nc1ncc(-c2ccncc2)o1` [Compound 015, 1-[4-Methyl-3-(5-pyridin-4-yl-oxazol-2-ylamino)-phenyl]-3-(3-trifluoromethyl-phenyl)-imidazolidin-2-one] was 198 to 200 °C. `Cc1ccc(Nc2nc3ccccc3o2)cc1Nc1ncc(-c2ccc(C#N)cc2)o1` [Compound 002, 4-{2-[5-(Benzooxazol-2-ylamino)-2-methyl-phenylamino]-oxazol-5-yl}-benzonitrile]: the melting point is 236 °C. The result for `Cc1ccc(C(=O)CCc2cccc(F)c2)cc1Nc1ncc(-c2ccc(C#N)cc2)o1` [Compound 021, 4-(2-{5-[3-(3-Fluoro-phenyl)-propionyl]-2-methyl-phenylamino}-oxazol-5-yl)-benzonitrile] reads 157 °C. The value for `Cc1ccc(N(C)CC(=O)c2ccc(F)cc2)cc1Nc1ncc(-c2ccncc2)o1` [Compound 024, 1-(4-Fluoro-phenyl)-2-{methyl-[4-methyl-3-(5-pyridin-4-yl-oxazol-2-ylamino)-phenyl]-amino}-ethanone] was 230 °C; that for `Cc1ccc(Nc2nc3cc(F)ccc3o2)cc1Nc1ncc(-c2ccncc2)o1` [Compound 009, N1-(5-Fluoro-benzooxazol-2-yl)-4-methyl-N3-(5-pyridin-4-yl-oxazol-2-yl)-benzene-1,3-diamine] was 170 °C. The value for `CC(=O)c1ccc(C)c(Nc2ncc(-c3ccc(C#N)cc3)o2)c1` [Compound 018, 4-[2-(5-Acetyl-2-methyl-phenylamino)-oxazol-5-yl]-benzonitrile] was 240 °C; that for `Cc1ccc(NS(=O)(=O)Cc2ccccc2)cc1Nc1ncc(-c2ccncc2)o1` [Compound 001, N-[4-Methyl-3-(5-pyridin-4-yl-oxazol-2-ylamino)-phenyl]-C-phenyl-methane sulfonamide] was 258 °C; that for `Cc1ccc(Nc2nc3ccc(F)cc3o2)cc1Nc1ncc(-c2ccncc2)o1` [Compound 010, N1-(6-Fluoro-benzooxazol-2-yl)-4-methyl-N3-(5-pyridin-4-yl-oxazol-2-yl)-benzene-1,3-diamine] was 260 °C. `Cc1ccc(NCC(=O)c2ccc(F)cc2)cc1Nc1ncc(-c2ccc(C#N)cc2)o1` [Compound 027, 4-(2-{5-[2-(4-Fluoro-phenyl)-2-oxo-ethylamino]-2-methyl-phenylamino}-oxazol-5-yl)-benzonitrile] returned a melting point of 199 °C. The value for `Cc1ccc(C(=O)CCc2ccc(F)cc2)cc1Nc1ncc(-c2ccc(C#N)cc2)o1` [Compound 019, 4-(2-{5-[3-(4-Fluoro-phenyl)-propionyl]-2-methyl-phenylamino}-oxazol-5-yl)-benzonitrile] was 175 °C.
